Results as given in the supplement of paper PMC10307832.

Key:
Assay in all cases: relative viability (nuclei count vs DMSO), 5 days (fraction); higher = more cells survive
[1] = compound: N=C1NC(=O)/C(=C/c2ccc(O)cc2)S1 [Mirin] + NC(=O)Nc1cc(-c2cccc(F)c2)sc1C(=O)N[C@H]1CCCNC1 [AZD7762] (partner 0.2 µM)
Outline: (§1)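 Relative viability is defined as nuclei in treated wells over nuclei in vehicle wells. Duplicate plates were run and medians reported. Lung cancer cell lines in 1536-well plates were dosed by pin tool one day after seeding, with one drug or with a fixed anchor-drug dose plus five library-drug doses (not always all listed) in √10 steps, and nuclei were counted after 5 days.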

[2] = compound: CCC1=CN=CN=C1N2CCN(CC2)CC3=NC4=C(N3)C=C(C=C4)C(F)(F)F + CC(=O)c1c(C)c2cnc(Nc3ccc(N4CCNCC4)cn3)nc2n(C2CCCC2)c1=O [Palbociclib] (partner 0.5 µM)
Outline: as §1

[3] = compound: N=C1NC(=O)/C(=C/c2ccc(O)cc2)S1 [Mirin] + CC1(C)CCC(c2ccc(Cl)cc2)=C(CN2CCN(c3ccc(C(=O)NS(=O)(=O)c4ccc(N[C@H](CCN5CCOCC5)CSc5ccccc5)c(S(=O)(=O)C(F)(F)F)c4)cc3)CC2)C1 [Navitoclax] (partner 0.5 µM)
Outline: as §1

[4] = compound: CCn1c(-c2nonc2N)nc2cnc(Oc3cccc(NC(=O)c4ccc(OCCN5CCOCC5)cc4)c3)cc21 + Cc1cc(Nc2cc(N3CCN(C)CC3)nc(Sc3ccc(NC(=O)C4CC4)cc3)n2)n[nH]1 [Tozasertib] (partner 0.1 µM)
Outline: as §1

Cell Line	relative viability ([1]; first compound 0.25 µM)	relative viability ([1]; first compound 0.7906 µM)	relative viability ([1]; first compound 2.5 µM)	relative viability ([1]; first compound 7.906 µM)	relative viability ([1]; first compound 25 µM)	relative viability ([2]; first compound 0.04 µM)	relative viability ([2]; first compound 0.1265 µM)	relative viability ([2]; first compound 0.4 µM)	relative viability ([2]; first compound 1.265 µM)	relative viability ([2]; first compound 4 µM)	relative viability ([3]; first compound 0.25 µM)	relative viability ([3]; first compound 0.7906 µM)	relative viability ([3]; first compound 2.5 µM)	relative viability ([3]; first compound 7.906 µM)	relative viability ([3]; first compound 25 µM)	relative viability ([4]; first compound 0.04 µM)	relative viability ([4]; first compound 0.1265 µM)	relative viability ([4]; first compound 0.4 µM)	relative viability ([4]; first compound 1.265 µM)	relative viability ([4]; first compound 4 µM)
NCI-H3122	1.01	0.954	0.927	1.07	1.1	0.176	0.226	0.207	0.172	0.172	1.01	1.1	1.01	1.09	1.15	0.501	0.395	0.385	0.332	0.325
PC-3 [JPC-3]	0.88	0.782	0.896	0.843	0.989		0.53	0.56	0.565	0.543	0.826	0.813	0.812	0.869	0.904	0.94	0.866	1.03	0.861	0.77
PC-14	0.389	0.481	0.365	0.313	0.429	0.519	0.518	0.548	0.608	0.506	1.04	1.04	1.08	1.03	1.17	0.691	0.47	0.422	0.326	0.321
RERF-LC-KJ	1.17	0.878	0.953	0.814	1.08	1.05	1.06	1.02	0.971	0.923	0.979	0.862	0.989	1.08	1.1	0.528	0.318	0.283	0.249	0.217
